The text below walks through data of patent US10124004B2, “Pyrido[3,4-d]pyrimidine derivative and pharmaceutically acceptable salt thereof” (Teijin Pharma Limited, priority 2015, dated 2018).

Format in all cases: biochemical
One experiment concerns the target CDK6/cyclin D3 (Homo sapiens, UniProt Q00534). The experiment is described as follows: Human CDK6/cyclin D3 inhibitory activity (off-chip mobility shift assay). As to conditions: 50% inhibitory concentration against CDK6/cyclin D3; 300 μM ATP, room temperature, five hours; read-out: CDK6 Activity Symbol. As to the method: Human CDK6/Cyclin D3 Inhibitory Activity
CDK6/cyclin D3 inhibitory activity was determined by the off-chip mobility shift assay (MSA). The MSA separates proteins from one another on the basis of a difference in electrophoretic mobility depending on the molecular weight or electric charge of the proteins. The kinase activity is determined by quantifying the degree of phosphorylation through electrophoretic analysis of a positive to negative change in electric charge of the substrate phosphorylated by the kinase.
Each solution was prepared with an assay buffer containing 20 mM HEPES (pH 7.5), 0.01% Triton X-100, and 2 mM dithiothreitol. A test compound solution was prepared by dilution of the test compound with dimethyl sulfoxide (DMSO) to a concentration 100 times higher than the final concentration and then 25-fold dilution with the assay buffer to a concentration four times higher than the final concentration. An ATP/substrate/metal solution was prepared to have a concentration four times higher than the final concentration. An enzyme solution was prepared to have a concentration twice higher than the final concentration. The final enzyme concentration was adjusted to an appropriate level on the basis of the enzyme activity signal and the inhibitory activity of a positive control compound.
The test compound solution (5 μL/well) and the ATP/substrate/metal solution (5 μL/well) were added to a 384-well plate, and the enzyme solution or the assay buffer (10 μL/well) was added to the plate (total amount of the reaction mixture: 20 μL/well) for initiation of enzymatic reaction. […] The reaction was performed at room temperature for five hours, and a termination buffer (QuickScout Screening Assist MSA, manufactured by Carna Biosciences, Inc.) (60 μL/well) was then added to the plate for termination of the reaction. Subsequently, the substrate peptide and the phosphorylated peptide in the reaction mixture were separated from each other and quantified with LabChip 3000 (manufactured by Caliper Lifesciences). The kinase reaction was evaluated by the product ratio (P/(P+S)) calculated from the peak height (S) of the substrate peptide and the peak height (P) of the phosphorylated peptide.
The percent inhibition of enzyme activity was calculated for each test compound (note: enzyme activity=100% in the case of addition of the enzyme solution and addition of DMSO instead of the test compound solution, whereas enzyme activity=0% in the case of addition of the assay buffer instead of the enzyme solution and addition of DMSO instead of the test compound solution). The percent inhibition of enzyme activity was fitted to a dose-response curve, to determine a 50% inhibitory concentration against CDK6/cyclin D3.
In each table, “+++” corresponds to IC50<10 nM, “++” 10 nM≤IC50<100 nM, and “+” 100 nM≤IC50.

The target of another experiment is T1, CDK2/cyclin A2 (Homo sapiens, UniProt P24941).
T1 construct: purchased Carna Biosciences, Inc. QS S Assist CDK2/Cyclin A2_FP Kit
As to the kind of experiment: Human CDK2/cyclin A2 inhibitory activity (QS S Assist CDK2/Cyclin A2_FP Kit, IMAP fluorescence polarization). The settings on record: 50% inhibitory concentration against CDK2/cyclin A2, given as class symbol. The procedure, abridged: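 Kinase activity read as fluorescence polarization (485/535 nm) after phosphorylated fluorescent substrate binds IMAP reagent (30 min, RT, dark). Enzyme (2.5 ng/well) reacted 60 min at RT with ATP/substrate/metal in HEPES pH 7.4 buffer with Tween 20 and DTT; no-enzyme wells define 0% activity; IC50 by curve fit.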

A further experiment deals with T2, CDK4/cyclin D3 (Homo sapiens, UniProt P11802).
T2 construct: purchased Carna Biosciences, Inc. QS S Assist CDK4/Cyclin D3_FP Kit
As to the kind of experiment: Human CDK4/cyclin D3 inhibitory activity (QS S Assist CDK4/Cyclin D3_FP Kit, IMAP fluorescence polarization). The settings on record: 50% inhibitory concentration against CDK4/cyclin D3, given as class symbol. The essentials: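 IMAP fluorescence-polarization kinase assay with kit ATP/substrate/metal mix and 12.5 to 25 ng/well enzyme in 20 mM HEPES pH 7.4, 0.01% Tween20, 2 mM DTT. Reaction ran 45 min at room temperature, then binding reagent was added for 30 min in the dark. IC50 was taken from dose-response fits of percent inhibition.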

T2 sequence (P11802 whole entry): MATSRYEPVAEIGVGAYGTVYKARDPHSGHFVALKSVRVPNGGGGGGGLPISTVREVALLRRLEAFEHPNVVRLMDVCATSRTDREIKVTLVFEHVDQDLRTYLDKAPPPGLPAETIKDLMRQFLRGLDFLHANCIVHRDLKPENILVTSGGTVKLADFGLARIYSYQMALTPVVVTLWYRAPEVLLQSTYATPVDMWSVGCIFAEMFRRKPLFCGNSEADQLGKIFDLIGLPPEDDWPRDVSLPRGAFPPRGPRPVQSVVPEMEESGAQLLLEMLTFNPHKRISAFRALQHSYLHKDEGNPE
T2 sequence (P30281 whole entry partner): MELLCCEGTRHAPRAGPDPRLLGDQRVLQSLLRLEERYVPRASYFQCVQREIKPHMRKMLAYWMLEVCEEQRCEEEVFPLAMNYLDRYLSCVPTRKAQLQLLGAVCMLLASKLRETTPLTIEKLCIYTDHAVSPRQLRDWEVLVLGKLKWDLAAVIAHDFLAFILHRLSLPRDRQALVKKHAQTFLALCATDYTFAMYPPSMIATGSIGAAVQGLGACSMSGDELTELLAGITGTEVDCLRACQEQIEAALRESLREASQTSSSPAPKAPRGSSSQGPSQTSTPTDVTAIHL
Chain of CDK6/cyclin D3 (Q00534 whole entry): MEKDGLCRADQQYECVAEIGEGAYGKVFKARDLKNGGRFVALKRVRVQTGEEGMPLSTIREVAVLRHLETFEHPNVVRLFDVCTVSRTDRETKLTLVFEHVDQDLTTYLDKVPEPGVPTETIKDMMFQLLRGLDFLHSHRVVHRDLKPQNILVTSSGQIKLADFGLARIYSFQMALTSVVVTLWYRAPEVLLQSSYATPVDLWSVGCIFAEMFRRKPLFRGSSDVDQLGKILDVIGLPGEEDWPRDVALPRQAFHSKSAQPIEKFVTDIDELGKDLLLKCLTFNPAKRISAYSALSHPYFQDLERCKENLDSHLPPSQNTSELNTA
Chain of CDK6/cyclin D3 (P30281 whole entry partner): as the sequence (P30281 whole entry partner) above

With `CC(C)Nc1nc(C2CCCO2)cc2cnc(Nc3ccc(N4CCNCC4=O)cn3)nc12` (single isomer, unassigned) [Compound 672], the IC50 on CDK6/cyclin D3 is 10 to 100 nM; against CDK2/cyclin A2, at least 100 nM; against CDK4/cyclin D3, below 10 nM.
On to `CC(C)Nc1nc(C(F)F)cc2cnc(Nc3ccc(N4CCNCC4)cn3)nc12` [Compound 3, 6-difluoromethyl-8-isopropyl-2-(5-piperazin-1-ylpyridin-2-yl)pyrido[3,4-d]pyrimidine-2,8-diamine], for which the IC50 at CDK6/cyclin D3 is below 10 nM.
With `CC(C)Nc1nc([C@@H](C)O)cc2cnc(Nc3ccc(CN4CCN(C(=O)CN(C)C)CC4)cn3)nc12` [Compound 1194], the figures for the IC50 on CDK2/cyclin A2 and against CDK4/cyclin D3 were at least 100 nM and below 10 nM, respectively.
Take `CCCNc1nc([C@@H](C)O)cc2cnc(Nc3ccc(CN4CCC[C@@H](O)C4)cn3)nc12` [Compound 1195]: the IC50 is at least 100 nM against CDK2/cyclin A2 and below 10 nM on CDK4/cyclin D3.
As to `CC(C)Nc1nc([C@@H](C)O)cc2cnc(Nc3ccc(CN4CCC[C@@H](O)C4)cn3)nc12` [Compound 1196], the figures for the IC50 at CDK2/cyclin A2 and against CDK4/cyclin D3 were at least 100 nM and below 10 nM, respectively.
As for `C[C@@H](O)c1cc2cnc(Nc3ccc(CN4CCC[C@@H](O)C4)cn3)nc2c(NC(C)(C)C)n1` [Compound 1197], the IC50 against CDK2/cyclin A2 is at least 100 nM; against CDK4/cyclin D3, below 10 nM.
For `CCCNc1nc([C@@H](C)O)cc2cnc(Nc3ccc(CN4CCC[C@H](O)C4)cn3)nc12` [Compound 1198] the same measures were at least 100 nM and below 10 nM.
On to `CC(C)Nc1nc([C@@H](C)O)cc2cnc(Nc3ccc(CN4CCC[C@H](O)C4)cn3)nc12` [Compound 1199], for which the IC50 was at least 100 nM on CDK2/cyclin A2 and below 10 nM on CDK4/cyclin D3.
On to `C[C@@H](O)c1cc2cnc(Nc3ccc(CN4CCC[C@H](O)C4)cn3)nc2c(NC(C)(C)C)n1` [Compound 1200], for which the values for the IC50 against CDK2/cyclin A2 and against CDK4/cyclin D3 were at least 100 nM and below 10 nM, respectively.
Take `C[C@@H](O)c1cc2cnc(Nc3ccc(CN4CCN(CCO)CC4)cn3)nc2c(NC2(C)CC2)n1` [Compound 1201]: the IC50 is at least 100 nM on CDK2/cyclin A2 and below 10 nM against CDK4/cyclin D3.
The matching figures for `CCNc1nc([C@@H](C)O)c(F)c2cnc(Nc3ccc(CN4CCN(CCO)CC4)cn3)nc12` [Compound 1202]: at least 100 nM and below 10 nM.
The matching figures for `CCNc1nc([C@@H](C)O)cc2cnc(Nc3ccc(CN4CCN(CCO)CC4(C)C)cn3)nc12` [Compound 1203]: at least 100 nM and 10 to 100 nM.
`C[C@@H](O)c1cc2cnc(Nc3ccc(CN4CCN(CCO)CC4)cn3)nc2c(NC2CC(F)(F)C2)n1` [Compound 1204]: the IC50 was at least 100 nM on CDK2/cyclin A2 and below 10 nM on CDK4/cyclin D3.
Take `C[C@@H](O)c1cc2cnc(Nc3ccc(CN4CCN(CCO)CC4)cn3)nc2c(NC23CC(C2)C3)n1` [Compound 1205]: the IC50 against CDK2/cyclin A2 is at least 100 nM; on CDK4/cyclin D3, below 10 nM.
As to `CCCNc1nc([C@@H](C)O)cc2cnc(Nc3ccc(CN4CCN(CCO)[C@@H](C)C4)cn3)nc12` [Compound 1208], the IC50 is at least 100 nM at CDK2/cyclin A2 and below 10 nM against CDK4/cyclin D3.
For the compound `CCCNc1nc([C@@H](C)O)cc2cnc(Nc3ccc(CN4CCN(CCO)[C@H](C)C4)cn3)nc12` [Compound 1209], the IC50 is at least 100 nM on CDK2/cyclin A2 and below 10 nM against CDK4/cyclin D3.
For `C[C@@H](O)c1cc2cnc(Nc3ccc(N4CCNCC4=O)cn3)nc2c(NC2CC(F)C2)n1` (stereo partly drawn) [Compound 1210] the same measures were at least 100 nM and below 10 nM.
In the case of `C[C@@H](O)c1cc2cnc(Nc3ccc(N4CCNCC4=O)cn3)nc2c(NC2CC(F)(F)C2)n1` [Compound 1211], the IC50 is at least 100 nM on CDK2/cyclin A2 and 10 to 100 nM against CDK4/cyclin D3.
For `C[C@@H](O)c1cc2cnc(Nc3ccc(N4CCNCC4)cn3)nc2c(NCCCF)n1` [Compound 1212] the same measures were at least 100 nM and below 10 nM.
Consider `C[C@@H](O)c1cc2cnc(Nc3ccc(CN4CCN(CCO)CC4)cn3)nc2c(NCCC(F)F)n1` [Compound 1213], for which the IC50 on CDK2/cyclin A2 was at least 100 nM; on CDK4/cyclin D3 it was below 10 nM.
`C[C@@H](O)c1cc2cnc(Nc3ccc(CN4CCN(CCO)CC4)cn3)nc2c(NCCC(F)(F)F)n1` [Compound 1214]: the IC50 against CDK2/cyclin A2 was at least 100 nM; against CDK4/cyclin D3 it was below 10 nM.
On to `C[C@@H](O)c1cc2cnc(Nc3ccc(CN4CCN(CCO)CC4)cn3)nc2c(NCC(C)(F)F)n1` [Compound 1215], for which the IC50 against CDK2/cyclin A2 was at least 100 nM; on CDK4/cyclin D3, below 10 nM.
For `CCNc1nc([C@@H](C)O)cc2cnc(Nc3ccc(CN4CCCN(CCO)CC4)cn3)nc12` [Compound 1216] the same measures were at least 100 nM and below 10 nM.
On to `CC(C)Nc1nc([C@H](C)O)cc2cnc(Nc3ccc(N4CCNCC4=O)cn3)nc12` [Compound 1217], for which the values for the IC50 at CDK2/cyclin A2 and at CDK4/cyclin D3 were at least 100 nM and 10 to 100 nM, respectively.
The matching figures for `C[C@@H](O)c1cc2cnc(Nc3ccc(N4CCCC(C(=O)O)C4)nn3)nc2c(N[C@H]2CC[C@H](O)CC2)n1` (stereo partly drawn) [Compound 1218]: at least 100 nM and below 10 nM.
With `CC(C)Nc1nc([C@@H](C)O)cc2cnc(Nc3ccc(N4CCC(N(C)C)C4)nn3)nc12` (stereo partly drawn) [Compound 1219], the IC50 was at least 100 nM at CDK2/cyclin A2 and below 10 nM on CDK4/cyclin D3.
For `CC(C)Nc1nc([C@@H](C)O)cc2cnc(Nc3ccc(N4CCCC(N(C)C)C4)nn3)nc12` (stereo partly drawn) [Compound 1220] the same measures were at least 100 nM and below 10 nM.
On to `CCCNc1nc([C@@H](C)O)cc2cnc(Nc3ccc(C(=O)N4CCN(C)CC4)cn3)nc12` [Compound 1221], for which the results for the IC50 against CDK2/cyclin A2 and at CDK4/cyclin D3 were at least 100 nM and below 10 nM, respectively.
On to `CCNc1nc([C@@H](C)O)cc2cnc(Nc3ccc(CN4CC5CCC(C4)N5C)cn3)nc12` [Compound 1222], for which the IC50 against CDK2/cyclin A2 was at least 100 nM; against CDK4/cyclin D3, below 10 nM.
In the case of `CCCNc1nc([C@@H](C)O)cc2cnc(Nc3ccc(CN4CC5CCC(C4)N5C)cn3)nc12` [Compound 1223], the IC50 on CDK2/cyclin A2 is at least 100 nM; against CDK4/cyclin D3, below 10 nM.
Turning to `CC(C)Nc1nc([C@@H](C)O)cc2cnc(Nc3ccc(CN4CC5CCC(C4)N5C)cn3)nc12` [Compound 1224], the results for the IC50 on CDK2/cyclin A2 and at CDK4/cyclin D3 were at least 100 nM and below 10 nM, respectively.
As for `CC(C)Nc1nc([C@@H](C)O)cc2cnc(Nc3ccc(CN4CCNCC4)nn3)nc12` [Compound 1225], the IC50 was at least 100 nM at CDK2/cyclin A2 and below 10 nM at CDK4/cyclin D3.
Turning to `CO[C@H](C)c1cc2cnc(Nc3ccc(N4CCNCC4)nn3)nc2c(NCCCF)n1` [Compound 1226], the IC50 against CDK2/cyclin A2 was at least 100 nM; at CDK4/cyclin D3 it was below 10 nM.
In the case of `CO[C@H](C)c1cc2cnc(Nc3ccc(CN4CCNCC4)cn3)nc2c(NCCCF)n1` [Compound 1227], the results for the IC50 at CDK2/cyclin A2 and against CDK4/cyclin D3 were at least 100 nM and below 10 nM, respectively.
As for `CC(C)Nc1nc([C@@H](C)O)cc2cnc(Nc3ccc(N(C)CCN(C)C)cn3)nc12` [Compound 1228], the results for the IC50 on CDK2/cyclin A2 and against CDK4/cyclin D3 were at least 100 nM and below 10 nM, respectively.
The matching figures for `CC(C)Nc1nc(C2CCOC2)cc2cnc(Nc3ccc4c(n3)CCN(CCO)C4)nc12` (stereo not drawn) [Compound 1229]: at least 100 nM and below 10 nM.
For `CC(C)Nc1nc(C2CCOC2)cc2cnc(Nc3ccc4c(n3)CCN(CCN(C)C)C4)nc12` (stereo not drawn) [Compound 1230] the same measures were at least 100 nM and below 10 nM.
`CC(C)Nc1nc(C2CCOC2)cc2cnc(Nc3ccc4c(n3)CCN(C(=O)CO)C4)nc12` (stereo not drawn) [Compound 1231]: the IC50 on CDK2/cyclin A2 was at least 100 nM; at CDK4/cyclin D3, below 10 nM.
Take `CC(C)Nc1nc(C2CCOC2)cc2cnc(Nc3ccc4c(n3)CCN(CC(=O)O)C4)nc12` (stereo not drawn) [Compound 1232]: the IC50 on CDK2/cyclin A2 was at least 100 nM; against CDK4/cyclin D3, below 10 nM.
